Source: patent US6509163B1, “Methods of screening modulators of mammalian P2X7 purinergic receptors” (Glaxo Group Limited, priority 1997, dated 2003)

Target: T1, hP2X7 receptor (Homo sapiens, UniProt Q99572)
T1 construct: a clone containing the complete open reading frame of the hP2X7 receptor was constructed; expressed in transfected cells; host or cells: HEK293 (transient), pcDNA3
T1 sequence (Q99572 1-595): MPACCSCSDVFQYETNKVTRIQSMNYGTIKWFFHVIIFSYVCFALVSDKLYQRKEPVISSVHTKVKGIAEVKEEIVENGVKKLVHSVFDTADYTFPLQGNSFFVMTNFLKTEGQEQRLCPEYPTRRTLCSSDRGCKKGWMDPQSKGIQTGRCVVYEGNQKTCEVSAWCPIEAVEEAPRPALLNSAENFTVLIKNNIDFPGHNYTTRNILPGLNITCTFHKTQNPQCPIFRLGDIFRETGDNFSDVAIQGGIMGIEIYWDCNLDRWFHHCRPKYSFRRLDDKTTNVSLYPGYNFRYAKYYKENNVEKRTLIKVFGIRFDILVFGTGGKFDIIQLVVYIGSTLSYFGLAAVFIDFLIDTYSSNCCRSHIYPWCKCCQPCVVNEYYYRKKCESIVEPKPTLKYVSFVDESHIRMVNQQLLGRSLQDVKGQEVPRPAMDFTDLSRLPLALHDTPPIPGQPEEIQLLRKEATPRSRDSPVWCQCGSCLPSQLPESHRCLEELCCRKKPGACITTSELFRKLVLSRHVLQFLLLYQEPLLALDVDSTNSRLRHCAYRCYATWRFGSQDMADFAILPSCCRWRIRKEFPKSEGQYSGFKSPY
Experiment: Whole-cell recordings in HEK293 cells transiently transfected with hP2X7 receptors (Example 3)
Type: cell-based
Protocol: Cell culture. HEK293 cells were transiently transfected with cDNA (1 μg/ml) and lipofectin dissolved in Optimem (GIBCO) placed into petri dishes containing four coverslips onto which cells were plated at a density of about 8×10^4/coverslip. Cells were washed 5 h later and normal DMEM applied. Electrophysiological studies or dye uptake measurements were carried out 18-49 h later. For each set of transfections, parallel experiments were performed on HEK cells transfected with cDNA encoding both rP2X7 and hP2X7 receptors.
Electrophysiological experiments. Whole-cell recordings were made using the EPC9 patch-clamp amplifier and Pulse acquisition programs (HEKA, Lambrecht, Germany). Patch pipettes (5-7 MΩ) contained (mM) CsCl or NaCl 154, EGTA 10, HEPES 5. The normal extracellular solution contained (mM) NaCg 147, KCl2, CaCl2 2, MgCl2 1, HEPES 10 and glucose 12, and the “low divalent” solution had no magnesium and 0.3 mM CaCl2. Agonists were delivered by U-tube delivery system; antagonists, when applied, were present in both superfusion and U-tube. Experiments were carried out at room temperature.

`Nc1ncnc2c1ncn2[C@@H]1O[C@H](COP(=O)(O)OP(=O)(O)OP(=O)(O)O)[C@@H](OC(=O)c2ccc(C(=O)c3ccccc3)cc2)[C@H]1O` [BzATP, 3′-O-(4-benzoyl)benzoyl ATP] was tested, and the “EC50 at hP2X7 relative to rP2X7 receptor (fold greater)” value was 25 fold, the “potency to activate the receptor relative to ATP” value was 10 fold and the “cation current induced by maximal concentration of BzATP” value (300 μM BzATP, n=12) was 1777±342 pA. For the same compound, the “current measured at 30 s, of the peak current” value (BzATP 300 μM, low extracellular divalent concentrations, n=16) was 18±2%.
